{
  "source": "patent US6906205B2",
  "about": "“Spiro and dispiro 1,2,4-trioxolane antimalarials” (Medicines for Malaria Venture MMV, priority 2002, dated 2005)",
  "data": [
    {"tested_on": "P. falciparum K1 strain (Thailand resistant to chloroquine)", "assay": "semiautomated microdilution assay, [3H]-hypoxanthine incorporation, K1 strain", "format": "cell-based, Plasmodium falciparum", "conditions": "K1 strain, 72 h incubation", "summary_of_the_method": "(§1)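 Compounds were tested against intraerythrocytic parasites taken from asynchronous stock cultures, using semiautomated microdilution. IC50 values were estimated by logit regression analysis.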", "units": {"IC50 (ng/ml) K1": "ng/mL"}, "values": [
      {"smiles": "CN(C)C[C@H]1CC[C@]2(CC1)OOC1(O2)C2CC3CC(C2)CC1C3", "note": "(stereo partly drawn) [OZ232]", "IC50 (ng/ml) K1": 0.30},
      {"smiles": "O=C(C[C@H]1CC[C@]2(CC1)OOC1(O2)C2CC3CC(C2)CC1C3)N1CCCCC1", "note": "(stereo partly drawn) [OZ218]", "IC50 (ng/ml) K1": 2.0},
      {"smiles": "COC(=O)c1cn(C[C@H]2CC[C@]3(CC2)OOC2(O3)C3CC4CC(C3)CC2C4)cn1", "note": "(stereo partly drawn) [OZ224]", "IC50 (ng/ml) K1": 2.0},
      {"smiles": "O=C(OC1CCC2(CC1)OOC1(O2)C2CC3CC(C2)CC1C3)n1ccnc1", "note": "(stereo not drawn) [OZ147]", "IC50 (ng/ml) K1": 1.1},
      {"smiles": "O=C(NC[C@H]1CC[C@]2(CC1)OOC1(O2)C2CC3CC(C2)CC1C3)c1cccc[n+]1[O-]", "note": "(stereo partly drawn) [OZ270]", "IC50 (ng/ml) K1": 0.85},
      {"smiles": "CONC(=O)C[C@H]1CC[C@]2(CC1)OOC1(O2)C2CC3CC(C2)CC1C3", "note": "(stereo partly drawn) [OZ213]", "IC50 (ng/ml) K1": 2.3}
    ]},
    {"tested_on": "P. falciparum NF54 strain (sensitive to standard antimalarials)", "assay": "semiautomated microdilution assay, [3H]-hypoxanthine incorporation, NF54 strain", "format": "cell-based, Plasmodium falciparum", "conditions": "NF54 strain, 72 h incubation", "summary_of_the_method": "as §1", "units": {"IC50 (ng/ml) NF54": "ng/mL"}, "values": [
      {"smiles": "CN(C)C[C@H]1CC[C@]2(CC1)OOC1(O2)C2CC3CC(C2)CC1C3", "note": "(stereo partly drawn) [OZ232]", "IC50 (ng/ml) NF54": 0.50},
      {"smiles": "O=C(C[C@H]1CC[C@]2(CC1)OOC1(O2)C2CC3CC(C2)CC1C3)N1CCCCC1", "note": "(stereo partly drawn) [OZ218]", "IC50 (ng/ml) NF54": 3.0},
      {"smiles": "COC(=O)c1cn(C[C@H]2CC[C@]3(CC2)OOC2(O3)C3CC4CC(C3)CC2C4)cn1", "note": "(stereo partly drawn) [OZ224]", "IC50 (ng/ml) NF54": 3.0},
      {"smiles": "O=C(OC1CCC2(CC1)OOC1(O2)C2CC3CC(C2)CC1C3)n1ccnc1", "note": "(stereo not drawn) [OZ147]", "IC50 (ng/ml) NF54": 1.8},
      {"smiles": "O=C(NC[C@H]1CC[C@]2(CC1)OOC1(O2)C2CC3CC(C2)CC1C3)c1cccc[n+]1[O-]", "note": "(stereo partly drawn) [OZ270]", "IC50 (ng/ml) NF54": 1.3},
      {"smiles": "CONC(=O)C[C@H]1CC[C@]2(CC1)OOC1(O2)C2CC3CC(C2)CC1C3", "note": "(stereo partly drawn) [OZ213]", "IC50 (ng/ml) NF54": 2.8}
    ]},
    {"tested_on": "ANKA strain of P. berghei", "assay": "single dose STI in vivo screen in infected mice", "set-up": "species or system Plasmodium berghei", "conditions": "percent reduction in parasitemia day 3 post-infection; single 10 mg/kg po in 3% ethanol and 7% Tween 80; mice", "summary_of_the_method": "(§2)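 Groups of 3-5 Moro SPF or NMRI mice infected with the ANKA strain of P. berghei received a single dose of trioxolane on day one post-infection. The compound was given in 3% ethanol and 7% Tween 80 or in SSV (0.5% w/v CMC, 0.5% v/v benzyl alcohol, 0.4% v/v Tween 80, 0.9% w/v sodium chloride in water). Antimalarial activity was scored as percent reduction in parasitemia on day three and as survival time versus untreated controls. Survival to day 30 counted as cure.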", "units": {"Activity (%) po": "%"}, "values": [
      {"smiles": "CN(C)C[C@H]1CC[C@]2(CC1)OOC1(O2)C2CC3CC(C2)CC1C3", "note": "(stereo partly drawn) [OZ232]", "Activity (%) po": 76},
      {"smiles": "O=C(C[C@H]1CC[C@]2(CC1)OOC1(O2)C2CC3CC(C2)CC1C3)N1CCCCC1", "note": "(stereo partly drawn) [OZ218]", "Activity (%) po": 98},
      {"smiles": "COC(=O)c1cn(C[C@H]2CC[C@]3(CC2)OOC2(O3)C3CC4CC(C3)CC2C4)cn1", "note": "(stereo partly drawn) [OZ224]", "Activity (%) po": 0},
      {"smiles": "O=C(OC1CCC2(CC1)OOC1(O2)C2CC3CC(C2)CC1C3)n1ccnc1", "note": "(stereo not drawn) [OZ147]", "Activity (%) po": 85},
      {"smiles": "O=C(NC[C@H]1CC[C@]2(CC1)OOC1(O2)C2CC3CC(C2)CC1C3)c1cccc[n+]1[O-]", "note": "(stereo partly drawn) [OZ270]", "Activity (%) po": 99.17},
      {"smiles": "CONC(=O)C[C@H]1CC[C@]2(CC1)OOC1(O2)C2CC3CC(C2)CC1C3", "note": "(stereo partly drawn) [OZ213]", "Activity (%) po": 83}
    ]},
    {"tested_on": "ANKA strain of P. berghei", "assay": "single dose STI in vivo screen in infected mice", "set-up": "species or system Plasmodium berghei", "conditions": "percent reduction in parasitemia day 3 post-infection; single 10 mg/kg sc in 3% ethanol and 7% Tween 80; mice", "summary_of_the_method": "as §2", "units": {"Activity (%) sc": "%"}, "values": [
      {"smiles": "CN(C)C[C@H]1CC[C@]2(CC1)OOC1(O2)C2CC3CC(C2)CC1C3", "note": "(stereo partly drawn) [OZ232]", "Activity (%) sc": 99.94},
      {"smiles": "O=C(C[C@H]1CC[C@]2(CC1)OOC1(O2)C2CC3CC(C2)CC1C3)N1CCCCC1", "note": "(stereo partly drawn) [OZ218]", "Activity (%) sc": 99.68},
      {"smiles": "COC(=O)c1cn(C[C@H]2CC[C@]3(CC2)OOC2(O3)C3CC4CC(C3)CC2C4)cn1", "note": "(stereo partly drawn) [OZ224]", "Activity (%) sc": 20},
      {"smiles": "O=C(OC1CCC2(CC1)OOC1(O2)C2CC3CC(C2)CC1C3)n1ccnc1", "note": "(stereo not drawn) [OZ147]", "Activity (%) sc": 99.89},
      {"smiles": "O=C(NC[C@H]1CC[C@]2(CC1)OOC1(O2)C2CC3CC(C2)CC1C3)c1cccc[n+]1[O-]", "note": "(stereo partly drawn) [OZ270]", "Activity (%) sc": 99.81},
      {"smiles": "CONC(=O)C[C@H]1CC[C@]2(CC1)OOC1(O2)C2CC3CC(C2)CC1C3", "note": "(stereo partly drawn) [OZ213]", "Activity (%) sc": 85}
    ]},
    {"tested_on": "ANKA strain of P. berghei", "assay": "single dose STI in vivo screen in infected mice", "set-up": "species or system Plasmodium berghei", "conditions": "percent reduction in parasitemia day 3 post-infection; single po dose in standard suspending vehicle (SSV); mice", "summary_of_the_method": "as §2", "units": {"Activity (%) SSVpo": "%"}, "values": [
      {"smiles": "CN(C)C[C@H]1CC[C@]2(CC1)OOC1(O2)C2CC3CC(C2)CC1C3", "note": "(stereo partly drawn) [OZ232]", "Activity (%) SSVpo": 74},
      {"smiles": "O=C(C[C@H]1CC[C@]2(CC1)OOC1(O2)C2CC3CC(C2)CC1C3)N1CCCCC1", "note": "(stereo partly drawn) [OZ218]", "Activity (%) SSVpo": 99.30},
      {"smiles": "COC(=O)c1cn(C[C@H]2CC[C@]3(CC2)OOC2(O3)C3CC4CC(C3)CC2C4)cn1", "note": "(stereo partly drawn) [OZ224]", "Activity (%) SSVpo": 5},
      {"smiles": "O=C(OC1CCC2(CC1)OOC1(O2)C2CC3CC(C2)CC1C3)n1ccnc1", "note": "(stereo not drawn) [OZ147]", "Activity (%) SSVpo": 71},
      {"smiles": "O=C(NC[C@H]1CC[C@]2(CC1)OOC1(O2)C2CC3CC(C2)CC1C3)c1cccc[n+]1[O-]", "note": "(stereo partly drawn) [OZ270]", "Activity (%) SSVpo": 99.47},
      {"smiles": "CONC(=O)C[C@H]1CC[C@]2(CC1)OOC1(O2)C2CC3CC(C2)CC1C3", "note": "(stereo partly drawn) [OZ213]", "Activity (%) SSVpo": 74}
    ]},
    {"tested_on": "ANKA strain of P. berghei", "assay": "single dose STI in vivo screen in infected mice", "set-up": "species or system Plasmodium berghei", "conditions": "single 10 mg/kg po in 3% ethanol and 7% Tween 80; untreated control 5.6 ± 0.3", "summary_of_the_method": "as §2", "values": [
      {"smiles": "CN(C)C[C@H]1CC[C@]2(CC1)OOC1(O2)C2CC3CC(C2)CC1C3", "note": "(stereo partly drawn) [OZ232]", "Survival (days) po": "8.0 days"},
      {"smiles": "O=C(C[C@H]1CC[C@]2(CC1)OOC1(O2)C2CC3CC(C2)CC1C3)N1CCCCC1", "note": "(stereo partly drawn) [OZ218]", "Survival (days) po": "10.0 days"},
      {"smiles": "COC(=O)c1cn(C[C@H]2CC[C@]3(CC2)OOC2(O3)C3CC4CC(C3)CC2C4)cn1", "note": "(stereo partly drawn) [OZ224]", "Survival (days) po": "6.0 days"},
      {"smiles": "O=C(OC1CCC2(CC1)OOC1(O2)C2CC3CC(C2)CC1C3)n1ccnc1", "note": "(stereo not drawn) [OZ147]", "Survival (days) po": "8.0 days"},
      {"smiles": "O=C(NC[C@H]1CC[C@]2(CC1)OOC1(O2)C2CC3CC(C2)CC1C3)c1cccc[n+]1[O-]", "note": "(stereo partly drawn) [OZ270]", "Survival (days) po": "13.7 days"},
      {"smiles": "CONC(=O)C[C@H]1CC[C@]2(CC1)OOC1(O2)C2CC3CC(C2)CC1C3", "note": "(stereo partly drawn) [OZ213]", "Survival (days) po": "8.0/8.0/8.0 days"}
    ]},
    {"tested_on": "ANKA strain of P. berghei", "assay": "single dose STI in vivo screen in infected mice", "set-up": "species or system Plasmodium berghei", "conditions": "single 10 mg/kg sc in 3% ethanol and 7% Tween 80; untreated control 5.6 ± 0.3", "summary_of_the_method": "as §2", "values": [
      {"smiles": "CN(C)C[C@H]1CC[C@]2(CC1)OOC1(O2)C2CC3CC(C2)CC1C3", "note": "(stereo partly drawn) [OZ232]", "Survival (days) sc": "8.7 days"},
      {"smiles": "O=C(C[C@H]1CC[C@]2(CC1)OOC1(O2)C2CC3CC(C2)CC1C3)N1CCCCC1", "note": "(stereo partly drawn) [OZ218]", "Survival (days) sc": "9.0 days"},
      {"smiles": "COC(=O)c1cn(C[C@H]2CC[C@]3(CC2)OOC2(O3)C3CC4CC(C3)CC2C4)cn1", "note": "(stereo partly drawn) [OZ224]", "Survival (days) sc": "5.7 days"},
      {"smiles": "O=C(OC1CCC2(CC1)OOC1(O2)C2CC3CC(C2)CC1C3)n1ccnc1", "note": "(stereo not drawn) [OZ147]", "Survival (days) sc": "19.7 days"},
      {"smiles": "O=C(NC[C@H]1CC[C@]2(CC1)OOC1(O2)C2CC3CC(C2)CC1C3)c1cccc[n+]1[O-]", "note": "(stereo partly drawn) [OZ270]", "Survival (days) sc": "11.3 days"},
      {"smiles": "CONC(=O)C[C@H]1CC[C@]2(CC1)OOC1(O2)C2CC3CC(C2)CC1C3", "note": "(stereo partly drawn) [OZ213]", "Survival (days) sc": "8.0/8.0/8.0 days"}
    ]},
    {"tested_on": "ANKA strain of P. berghei", "assay": "single dose STI in vivo screen in infected mice", "set-up": "species or system Plasmodium berghei", "conditions": "single po dose in SSV; untreated control 5.6 ± 0.3", "summary_of_the_method": "as §2", "values": [
      {"smiles": "CN(C)C[C@H]1CC[C@]2(CC1)OOC1(O2)C2CC3CC(C2)CC1C3", "note": "(stereo partly drawn) [OZ232]", "Survival (days) SSVpo": "7.3 days"},
      {"smiles": "O=C(C[C@H]1CC[C@]2(CC1)OOC1(O2)C2CC3CC(C2)CC1C3)N1CCCCC1", "note": "(stereo partly drawn) [OZ218]", "Survival (days) SSVpo": "14.3 days"},
      {"smiles": "COC(=O)c1cn(C[C@H]2CC[C@]3(CC2)OOC2(O3)C3CC4CC(C3)CC2C4)cn1", "note": "(stereo partly drawn) [OZ224]", "Survival (days) SSVpo": "5.7 days"},
      {"smiles": "O=C(OC1CCC2(CC1)OOC1(O2)C2CC3CC(C2)CC1C3)n1ccnc1", "note": "(stereo not drawn) [OZ147]", "Survival (days) SSVpo": "8.0 days"},
      {"smiles": "O=C(NC[C@H]1CC[C@]2(CC1)OOC1(O2)C2CC3CC(C2)CC1C3)c1cccc[n+]1[O-]", "note": "(stereo partly drawn) [OZ270]", "Survival (days) SSVpo": "12.3 days"},
      {"smiles": "CONC(=O)C[C@H]1CC[C@]2(CC1)OOC1(O2)C2CC3CC(C2)CC1C3", "note": "(stereo partly drawn) [OZ213]", "Survival (days) SSVpo": "8.0/8.0/8.0 days"}
    ]}
  ]
}
